Assay results as given in ChEMBL document CHEMBL3244212, “Relationship of molecular structure to in vivo scintigraphic distribution of carbon-11-labeled compounds. 4. Carbon-11-labeled mandelonitriles, Mandelic acids, and their esters” (J Med Chem, 1978).
Values belong to the molecule of their own block, whether it stands above or below them.

Experiments:
Format in all cases: ADME, organism-based, Canis lupus familiaris
[1] = Biodistribution in iv dosed dog left lateral head/neck measured after 35 mins by scintigraphic analysis; details: in vivo
[2] = Biodistribution in iv dosed dog left lateral thorax measured after 27 mins by scintigraphic analysis; details: in vivo, 0.45 h
Canis familiaris [3] = assay: Biodistribution in iv dosed dog left lateral whole body measured after 4 mins by scintigraphic analysis; details: in vivo
[4] = Biodistribution in iv dosed dog ventral abdomen measured after 30 mins by scintigraphic analysis; details: in vivo, 0.5 h
[5] = Biodistribution in iv dosed dog blood measured after 3 mins by scintigraphic analysis; details: in vivo, 0.05 h
Liver = assay: Biodistribution in iv dosed dog left lateral liver measured after 18 to 80 mins by scintigraphic analysis; details: in vivo
[6] = Biodistribution in iv dosed dog left lateral heart measured after 18 to 80 mins by scintigraphic analysis; details: in vivo
[7] = Biodistribution in iv dosed dog urinary bladder measured after 21 to 51 mins by scintigraphic analysis; details: in vivo
Nucleic Acid [8] = assay: Ratio of drug level in temporal muscle to liver in iv dosed dog measured after 34 mins; details: in vivo
Nucleic Acid [9] = assay: Ratio of drug level in temporal muscle to spleen in iv dosed dog measured after 34 mins; details: in vivo
Nucleic Acid [10] = assay: Ratio of drug level in temporal muscle to mesenteric fat in iv dosed dog measured after 40 mins; details: in vivo
Nucleic Acid [11] = assay: Ratio of drug level in temporal muscle to pancreas in iv dosed dog measured after 34 mins; details: in vivo
Nucleic Acid [12] = assay: Ratio of drug level in temporal muscle to pancreas in iv dosed dog measured after 40 mins; details: in vivo
[13] = Ratio of drug level in temporal muscle to bile in iv dosed dog measured after 34 mins; details: in vivo
Nucleic Acid [14] = assay: Ratio of drug level in temporal muscle to mesenteric nodes in iv dosed dog measured after 40 mins; details: in vivo
Nucleic Acid [15] = assay: Ratio of drug level in temporal muscle to stomach in iv dosed dog measured after 40 mins; details: in vivo
[16] = Ratio of drug level in temporal muscle to urine in iv dosed dog measured after 40 mins; details: in vivo
Nucleic Acid [17] = assay: Ratio of drug level in temporal muscle to brain in iv dosed dog measured after 34 mins; details: in vivo
[18] = Ratio of drug level in temporal muscle to blood in iv dosed dog measured after 34 mins
Nucleic Acid [19] = assay: Ratio of drug level in temporal muscle to heart in iv dosed dog measured after 34 mins; details: in vivo
Nucleic Acid [20] = assay: Ratio of drug level in temporal muscle to lung in iv dosed dog measured after 34 mins; details: in vivo
Nucleic Acid [21] = assay: Ratio of drug level in temporal muscle to liver in iv dosed dog measured after 40 mins; details: in vivo
Nucleic Acid [22] = assay: Ratio of drug level in temporal muscle to kidney in iv dosed dog measured after 40 mins; details: in vivo
Nucleic Acid [23] = assay: Ratio of drug level in temporal muscle to cerebrospinal fluid in iv dosed dog measured after 34 mins; details: in vivo
[24] = Ratio of drug level in temporal muscle to urine in iv dosed dog measured after 34 mins; details: in vivo
Nucleic Acid [25] = assay: Ratio of drug level in temporal muscle to brain in iv dosed dog measured after 40 mins; details: in vivo
[26] = Ratio of drug level in temporal muscle to bile in iv dosed dog measured after 40 mins; details: in vivo
Nucleic Acid [27] = assay: Ratio of drug level in temporal muscle to adrenal in iv dosed dog measured after 40 mins; details: in vivo
Nucleic Acid [28] = assay: Ratio of drug level in temporal muscle to stomach in iv dosed dog measured after 34 mins; details: in vivo
Nucleic Acid [29] = assay: Ratio of drug level in temporal muscle to kidney in iv dosed dog measured after 34 mins; details: in vivo
Nucleic Acid [30] = assay: Ratio of drug level in temporal muscle to spleen in iv dosed dog measured after 40 mins; details: in vivo
Nucleic Acid [31] = assay: Ratio of drug level in temporal muscle to lung in iv dosed dog measured after 40 mins; details: in vivo
Nucleic Acid [32] = assay: Ratio of drug level in temporal muscle to heart in iv dosed dog measured after 40 mins; details: in vivo
Canis familiaris [33] = assay: Biodistribution in iv dosed dog lung after 3 mins by scintigraphic analysis; details: in vivo, 0.05 h

Drug uptake [1]: Active
Drug uptake [2]: Active
Drug uptake (Canis familiaris [3]): Active
Drug uptake [4]: Active
SMILES: N#[11C]C(O)c1ccc(O)c(O)c1 (configuration not stated)

SMILES: COc1ccc(C(O)[11C]#N)cc1 (configuration not stated)
Drug uptake [5]: Active
Drug uptake (Liver): Active
Drug uptake [6]: Active

Drug uptake [7]: Active
Drug uptake (Canis familiaris [3]): Active
SMILES: Cc1cccc(C(O)[11C](=O)O)c1 (configuration not stated)

SMILES: O=[11C](O)C(O)c1ccc(Cl)cc1 (configuration not stated)
Drug uptake [7]: Active
Drug uptake (Canis familiaris [3]): Active

Ratio (Nucleic Acid [8]): 1.38
Ratio (Nucleic Acid [9]): 1.08
Ratio (Nucleic Acid [10]): 0.47
Ratio (Nucleic Acid [11]): 4.54
Ratio (Nucleic Acid [12]): 1.18
Ratio [13]: 1.23
Ratio (Nucleic Acid [14]): 2.28
Ratio (Nucleic Acid [15]): 1.17
Ratio [16]: 295
Ratio (Nucleic Acid [17]): 0.23
Kp at 34 min [18]: 13.8
Ratio (Nucleic Acid [19]): 1.15
Ratio (Nucleic Acid [20]): 1.08
Ratio (Nucleic Acid [21]): 1.79
Ratio (Nucleic Acid [22]): 6.26
Ratio (Nucleic Acid [23]): 2
Ratio [24]: 36.77
Ratio (Nucleic Acid [25]): 0.16
Ratio [26]: 0.85
Ratio (Nucleic Acid [27]): 3.73
Ratio (Nucleic Acid [28]): 1.35
Ratio (Nucleic Acid [29]): 4.46
Drug uptake [7]: Active
Drug uptake (Canis familiaris [3]): Active
Ratio (Nucleic Acid [30]): 1.46
Ratio (Nucleic Acid [31]): 1.6
Ratio (Nucleic Acid [32]): 1.06
SMILES: O=[11C](O)C(O)c1ccccc1Cl (configuration not stated)

Drug uptake [7]: Active
Drug uptake (Canis familiaris [3]): Active
SMILES: O=[11C](O)C(O)c1ccccc1 (configuration not stated)

Drug uptake (Canis familiaris [33]): Active
SMILES: CCO[11C](=O)C(O)c1ccccc1 (configuration not stated)

Drug uptake (Canis familiaris [33]): Active
SMILES: O=[11C](OCc1ccccc1)C(O)c1ccccc1 (configuration not stated)
